# Source: US9914730B2, “Azaquinazoline inhibitors of Atypical protein Kinase C” (Ignyta, Inc., priority 2012, dated 2018)
# Molecular target: T1, full-length human PKCι (Homo sapiens, UniProt P41743)
# T1 construct: Recombinant, full-length human PKCι expressed in Sf21 insect cells is also commercially available; purchased; host or cells: Sf21 insect cells
# T1 sequence (P41743 1-596): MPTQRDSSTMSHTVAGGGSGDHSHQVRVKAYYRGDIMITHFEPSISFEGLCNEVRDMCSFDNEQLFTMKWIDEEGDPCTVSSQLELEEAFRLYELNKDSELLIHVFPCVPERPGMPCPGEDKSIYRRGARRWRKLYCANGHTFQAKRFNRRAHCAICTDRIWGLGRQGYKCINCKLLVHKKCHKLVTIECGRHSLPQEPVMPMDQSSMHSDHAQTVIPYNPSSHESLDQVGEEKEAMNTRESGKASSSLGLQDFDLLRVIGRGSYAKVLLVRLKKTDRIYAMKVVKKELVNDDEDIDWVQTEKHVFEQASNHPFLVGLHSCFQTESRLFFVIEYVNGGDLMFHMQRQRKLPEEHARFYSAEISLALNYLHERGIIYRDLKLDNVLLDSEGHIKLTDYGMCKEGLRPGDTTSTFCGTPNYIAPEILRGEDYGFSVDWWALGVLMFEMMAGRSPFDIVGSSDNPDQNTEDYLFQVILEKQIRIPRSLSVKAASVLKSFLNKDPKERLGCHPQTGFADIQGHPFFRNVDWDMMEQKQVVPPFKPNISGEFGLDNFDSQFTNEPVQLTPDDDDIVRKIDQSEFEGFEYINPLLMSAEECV
# Test: PKCι IC50 IMAP assay, full-length PKCι at 150 μM ATP
# Type: biochemical
# Conditions: read-out: IC50 in IMAP assay against full length PKCi at 150 μM ATP
# Summary of the method: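 Full-length human PKCι from Sf21 cells, typically 15 pM, with 100 nM 5FAM-PKCε pseudosubstrate peptide and 150 μM ATP (5× apparent KM), 60 min at room temperature, 4% DMSO. IMAP fluorescence polarisation read-out; inhibition normalised to no-compound and no-enzyme controls, IC50 from curve fit.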
row,SMILES,IC50 [nM]
1,"Fc1cccc(F)c1Nc1cc(-c2nc(N3CCNCC3)c3c(C4CC4)cnc(F)c3n2)ccn1 [Example 2101, [4-(5-Cyclopropyl-8-fluoro-4-piperazin-1-yl-pyrido[3,4-d]pyrimidin-2-yl)-pyridin-2-yl]-(2,6-difluoro-phenyl)-amine]",< 100
2,"Fc1cc(Nc2cc(-c3nc(N4CCNCC4)c4c(C5CC5)cncc4n3)ccn2)c(F)c(F)n1 [Example 682, [4-(5-Cyclopropyl-4-piperazin-1-yl-pyrido[3,4-d]pyrimidin-2-yl)-pyridin-2-yl]-(2,3,6-trifluoro-pyridin-4-yl)-amine]",100 to 1000
3,"CC(C)NC(=O)C1CCN(c2nc(-c3ccnc(NC4CCCCC4)c3)nc3cncc(C4CC4)c23)CC1 [Example 674, 1-[2-(2-Cyclohexylamino-pyridin-4-yl)-5-cyclopropyl-pyrido[3,4-d]pyrimidin-4-yl]-piperidine-4-carboxylicacid isopropylamide]",1000 to 10000
4,"COc1cncc2nc(-c3ccncc3)nc(NC[C@@H](N)[C@H](F)c3ccccc3)c12 [Example 47, N-[(2R,3R)-2-amino-3-fluoro-3-phenylpropyl]-5-methoxy-2-(pyridin-4-yl)pyrido[3,4-d]-pyrimidin-4-amine]",< 100
5,"COc1cncc2nc(-c3ccncc3)nc(N3CCC(N)(C(N)=O)C3)c12 (stereo not drawn) [Example 152, 3-Amino-1-(5-methoxy-2-pyridin-4-yl-pyrido[3,4-d]pyrimidin-4-yl)-pyrrolidine-3-carboxylic acid amide]",1000 to 10000
6,"OC1CCN(c2nc(-c3ccnc(Nc4ccccc4F)c3)nc3cncc(C4CC4)c23)CC1 [Example 274, 1-{5-Cyclopropyl-2-[2-(2-fluoro-phenylamino)-pyridin-4-yl]-pyrido[3,4-d]pyrimidin-4-yl}-piperidin-4-ol]",100 to 1000
7,"COc1cncc2nc(-c3ccnc(Nc4cccc(C(F)(F)F)c4F)c3)nc(N3CCNCC3)c12 [Example 452, (2-Fluoro-3-trifluoromethyl-phenyl)-[4-(5-methoxy-4-piperazin-1-yl-pyrido[3,4-d]pyrimidin-2-yl)-pyridin-2-yl]-amine]",100 to 1000
8,"COc1cncc2nc(-c3ccnc(Nc4cncc(Cl)c4)c3)nc(N3CCNCC3)c12 [Example 417, (5-Chloro-pyridin-3-yl)-[4-(5-methoxy-4-piperazin-1-yl-pyrido[3,4-d]pyrimidin-2-yl)-pyridin-2-yl]-amine]",100 to 1000
9,"COc1cncc2nc(-c3ccnc(Nc4ccccc4)c3)nc(N3CCC(O)CC3)c12 [Example 427, 1-[5-Methoxy-2-(2-phenylamino-pyridin-4-yl)-pyrido[3,4-d]pyrimidin-4-yl]-piperidin-4-ol]",1000 to 10000
10,"C[C@@H]1CN(c2nc(-c3ccnc(Nc4c(F)cccc4F)c3)nc3cncc(C4CC4)c23)C[C@H](C)N1 [Example 843, {4-[5-Cyclopropyl-4-((3R,5S)-3,5-dimethyl-piperazin-1-yl)-pyrido[3,4-d]pyrimidin-2-yl]-pyridin-2-yl}-(2,6-difluoro-phenyl)-amine]",< 100
11,"COc1cncc2nc(-c3ccnc(Nc4ccccc4)c3)nc(N3CCC(CO)CC3)c12 [Example 244, {1-[5-Methoxy-2-(2-phenylamino-pyridin-4-yl)-pyrido[3,4-d]pyrimidin-4-yl]-piperidin-4-yl}-methanol]",1000 to 10000
12,"CN(C)C(=O)C1CCN(c2nc(-c3ccnc(Nc4c(F)cccc4F)c3)nc3cncc(C4CC4)c23)CC1 [Example 686, 1-{5-Cyclopropyl-2-[2-(2,6-difluoro-phenylamino)-pyridin-4-yl]-pyrido[3,4-d]pyrimidin-4-yl}-piperidine-4-carboxylic acid dimethylamide]",100 to 1000
13,"COc1cncc2nc(-c3ccnc(Nc4cccc(N5CCNCC5)c4)c3)ncc12 [Example 503, [4-(5-Methoxy-pyrido[3,4-d]pyrimidin-2-yl)-pyridin-2-yl]-(3-piperazin-1-yl-phenyl)-amine]",1000 to 10000
14,"Fc1cccc(Nc2cc(-c3nc(N4CCNCC4)c4c(Cl)cncc4n3)ccn2)c1F [Example 252, [4-(5-Chloro-4-piperazin-1-yl-pyrido[3,4-d]pyrimidin-2-yl)-pyridin-2-yl]-(2,3-difluoro-phenyl)-amine]",100 to 1000
15,"Fc1cc(Cl)cnc1Nc1cc(-c2nc(N3CCNCC3)c3c(C4CC4)cncc3n2)ccn1 [Example 2171, (5-Chloro-3-fluoro-pyridin-2-yl)-[4-(5-cyclopropyl-4-piperazin-1-yl-pyrido[3,4-d]pyrimidin-2-yl)-pyridin-2-yl]-amine]",< 100
16,"NC(=O)N[C@H](CNc1nc(-c2ccncc2)nc2cnccc12)Cc1ccccc1 [Example 84, (1-phenyl-3-{[2-(pyridin-4-yl)pyrido[3,4-d]pyrimidin-4-yl]amino}propan-2-yl)urea]",10000 to 40000
17,"COc1cncc2nc(-c3ccnc(Nc4ccc(N5CCOCC5)cc4C)c3)nc(N3CCNCC3)c12 [Example 383, [4-(5-Methoxy-4-piperazin-1-yl-pyrido[3,4-d]pyrimidin-2-yl)-pyridin-2-yl]-(2-methyl-4-morpholin-4-yl-phenyl)-amine]",< 100
18,"CN1CCN(C(=O)C2CCN(c3nc(-c4ccnc(Nc5c(F)cccc5F)c4)nc4cncc(C5CC5)c34)CC2)CC1 [Example 735, (1-{5-Cyclopropyl-2-[2-(2,6-difluoro-phenylamino)-pyridin-4-yl]-pyrido[3,4-d]pyrimidin-4-yl}-piperidin-4-yl)-(4-methyl-piperazin-1-yl)-methanone]",100 to 1000
19,"Fc1ccn2nc(Nc3cc(-c4nc(N5CCNCC5)c5c(C6CC6)cncc5n4)ccn3)nc2c1 [Example 2033, [4-(5-Cyclopropyl-4-piperazin-1-yl-pyrido[3,4-d]pyrimidin-2-yl)-pyridin-2-yl]-(7-fluoro-[1,2,4]triazolo[1,5-a]pyridin-2-yl)-amine]",< 100
20,"O[C@@H]1CCCN(c2nc(-c3ccnc(Nc4cccc(F)n4)c3)nc3cncc(C4CC4)c23)C1 [Example 806, (R)-1-{5-Cyclopropyl-2-[2-(6-fluoro-pyridin-2-ylamino)-pyridin-4-yl]-pyrido[3,4-d]pyrimidin-4-yl}-piperidin-3-ol]",1000 to 10000
21,"Fc1ccc(F)c(Nc2cc(-c3nc(N4CCNCC4)c4c(C5CCC5)cncc4n3)ccn2)n1 [Example 799, [4-(5-Cyclobutyl-4-piperazin-1-yl-pyrido[3,4-d]pyrimidin-2-yl)-pyridin-2-yl]-(3,6-difluoro-pyridin-2-yl)-amine]",< 100
22,"Fc1cccc2c1[nH]c1nccc(-c3nc(N4CCNCC4)c4c(C5CC5)cncc4n3)c12 [Example 2031, 4-(5-Cyclopropyl-4-piperazin-1-yl-pyrido[3,4-d]pyrimidin-2-yl)-8-fluoro-9H-pyrido[2,3-b]indole]",< 100
23,"c1ccc(Nc2cc(-c3nc(N4CCNCC4)c4c(C5CCC5)cncc4n3)ccn2)cc1 [Example 619, [4-(5-Cyclobutyl-4-piperazin-1-yl-pyrido[3,4-d]pyrimidin-2-yl)-pyridin-2-yl]-phenyl-amine]",< 100
24,"NC(=O)COc1cccc(Nc2cc(-c3nc(N[C@@H]4CCNC4)c4ccncc4n3)ccn2)c1 [Example 311, 2-(3-{4-[4-((R)-Pyrrolidin-3-ylamino)-pyrido[3,4-d]pyrimidin-2-yl]-pyridin-2-ylamino}-phenoxy)-acetamide]",< 100
25,"O=C1CN(c2nc(-c3ccncc3)nc3cnccc23)CCN1 [Example 27, 4-[2-(pyridin-4-yl)pyrido[3,4-d]-pyrimidin-4-yl]-piperazin-2-one]",10000 to 40000
26,"CC(C)c1ccc(F)c(Nc2cc(-c3nc(N4CCNCC4)c4c(C5CC5)cncc4n3)ccn2)c1 [Example 716, [4-(5-Cyclopropyl-4-piperazin-1-yl-pyrido[3,4-d]pyrimidin-2-yl)-pyridin-2-yl]-(2-fluoro-5-isopropyl-phenyl)-amine]",< 100
27,"Fc1cccc(Nc2cc(-c3nc(N4CCNCC4)c4c(C5CC5)cncc4n3)ccn2)c1Cl [Example 578, (2-Chloro-3-fluoro-phenyl)-[4-(5-eyclopropyl-4-piperazin-1-yl-pyrido[3,4-d]pyrimidin-2-yl)-pyridin-2-yl]-Amine]",< 100
28,"COc1cncc2nc(-c3ccnc(Nc4ccc(C#N)cc4F)c3)nc(N3CCNCC3)c12 [Example 419, 3-Fluoro-4-[4-(5-methoxy-4-piperazin-1-yl-pyrido[3,4-d]pyrimidin-2-yl)-pyridin-2-ylamino]-benzonitrile]",100 to 1000
29,"COc1cncc2nc(-c3ccnc(Nc4ccccc4)c3)nc(N3CCN[C@H](CO)C3)c12 [Example 222, {(S)-4-[5-Methoxy-2-(2-phenylamino-pyridin-4-yl)-pyrido[3,4-d]pyrimidin-4-yl]-piperazin-2-yl}-methanol]",< 100
30,"COc1cncc2nc(-c3ccnc(Nc4cc(Cl)ccn4)c3)nc(N3CCNCC3)c12 [Example 365, (4-Chloro-pyridin-2-yl)-[4-(5-methoxy-4-piperazin-1-yl-pyrido[3,4-d]pyrimidin-2-yl)-pyridin-2-yl]-amine]",< 100
